Earlier results in PMC6597953, “Taking Advantage of the Selectivity of Histone Deacetylases and Phosphodiesterase Inhibitors to Design Better Therapeutic Strategies to Treat Alzheimer’s Disease” (Frontiers in Aging Neuroscience, 2019).

What was measured:
Format in all cases: biochemical
[1] = biological target: T1, HDAC6 (Homo sapiens, UniProt Q9UBN7); test: IC50 of HDAC6 inhibition (assay not described); supported by alpha-tubulin acetylation western blot in SH-SY5Y cells
T1 sequence (Q9UBN7 1-1215): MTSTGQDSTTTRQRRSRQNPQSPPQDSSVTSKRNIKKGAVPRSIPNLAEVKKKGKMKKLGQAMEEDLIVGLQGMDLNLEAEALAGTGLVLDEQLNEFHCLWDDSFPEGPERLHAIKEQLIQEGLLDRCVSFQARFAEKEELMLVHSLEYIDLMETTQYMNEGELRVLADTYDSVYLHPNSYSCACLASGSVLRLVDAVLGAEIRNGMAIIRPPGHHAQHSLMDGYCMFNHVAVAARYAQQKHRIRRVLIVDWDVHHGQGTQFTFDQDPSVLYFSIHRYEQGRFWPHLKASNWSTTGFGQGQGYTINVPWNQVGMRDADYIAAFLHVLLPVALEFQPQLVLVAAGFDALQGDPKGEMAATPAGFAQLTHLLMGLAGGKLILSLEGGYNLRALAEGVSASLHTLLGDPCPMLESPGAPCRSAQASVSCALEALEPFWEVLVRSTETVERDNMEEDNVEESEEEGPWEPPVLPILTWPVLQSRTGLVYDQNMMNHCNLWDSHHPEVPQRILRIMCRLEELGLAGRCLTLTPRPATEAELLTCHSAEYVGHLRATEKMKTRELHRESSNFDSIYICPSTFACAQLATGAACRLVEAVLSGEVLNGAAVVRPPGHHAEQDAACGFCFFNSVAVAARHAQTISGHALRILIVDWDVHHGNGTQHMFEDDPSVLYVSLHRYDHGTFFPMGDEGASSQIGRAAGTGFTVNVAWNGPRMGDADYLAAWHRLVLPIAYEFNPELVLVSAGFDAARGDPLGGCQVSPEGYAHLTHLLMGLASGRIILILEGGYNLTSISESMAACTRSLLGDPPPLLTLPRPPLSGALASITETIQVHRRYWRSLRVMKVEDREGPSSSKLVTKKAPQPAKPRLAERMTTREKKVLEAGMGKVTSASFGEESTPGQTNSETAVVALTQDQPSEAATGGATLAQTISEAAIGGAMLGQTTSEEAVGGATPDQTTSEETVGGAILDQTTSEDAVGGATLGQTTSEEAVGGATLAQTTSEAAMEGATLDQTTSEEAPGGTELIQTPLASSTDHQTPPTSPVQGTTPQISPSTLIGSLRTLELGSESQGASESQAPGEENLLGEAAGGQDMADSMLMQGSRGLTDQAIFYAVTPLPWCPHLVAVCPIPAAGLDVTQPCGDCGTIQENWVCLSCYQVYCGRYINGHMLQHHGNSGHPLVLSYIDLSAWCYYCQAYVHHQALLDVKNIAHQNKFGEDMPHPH

[2] = biological target: HDAC1 (Homo sapiens, UniProt Q13547); test: IC50 of HDAC1 inhibition (assay not described); AcH3K9 western blot in SH-SY5Y cells at […]
Chain of HDAC1 (Q13547 whole entry): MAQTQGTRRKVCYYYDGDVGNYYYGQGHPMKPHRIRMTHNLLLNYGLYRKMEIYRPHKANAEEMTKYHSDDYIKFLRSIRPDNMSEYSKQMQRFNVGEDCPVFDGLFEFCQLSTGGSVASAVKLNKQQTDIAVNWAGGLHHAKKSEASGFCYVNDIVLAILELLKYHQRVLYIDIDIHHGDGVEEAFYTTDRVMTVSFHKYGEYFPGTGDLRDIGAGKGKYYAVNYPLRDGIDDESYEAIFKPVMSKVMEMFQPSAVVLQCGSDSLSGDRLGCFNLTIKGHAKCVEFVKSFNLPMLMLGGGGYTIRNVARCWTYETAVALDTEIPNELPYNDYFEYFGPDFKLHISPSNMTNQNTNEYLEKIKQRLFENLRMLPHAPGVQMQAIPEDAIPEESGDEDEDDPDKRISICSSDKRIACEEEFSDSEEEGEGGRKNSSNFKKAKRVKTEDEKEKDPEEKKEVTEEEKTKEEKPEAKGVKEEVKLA

[3] = biological target: HDAC2 (Homo sapiens, UniProt Q92769); test: IC50 of HDAC2 inhibition (assay not described)
Chain of HDAC2 (Q92769 whole entry): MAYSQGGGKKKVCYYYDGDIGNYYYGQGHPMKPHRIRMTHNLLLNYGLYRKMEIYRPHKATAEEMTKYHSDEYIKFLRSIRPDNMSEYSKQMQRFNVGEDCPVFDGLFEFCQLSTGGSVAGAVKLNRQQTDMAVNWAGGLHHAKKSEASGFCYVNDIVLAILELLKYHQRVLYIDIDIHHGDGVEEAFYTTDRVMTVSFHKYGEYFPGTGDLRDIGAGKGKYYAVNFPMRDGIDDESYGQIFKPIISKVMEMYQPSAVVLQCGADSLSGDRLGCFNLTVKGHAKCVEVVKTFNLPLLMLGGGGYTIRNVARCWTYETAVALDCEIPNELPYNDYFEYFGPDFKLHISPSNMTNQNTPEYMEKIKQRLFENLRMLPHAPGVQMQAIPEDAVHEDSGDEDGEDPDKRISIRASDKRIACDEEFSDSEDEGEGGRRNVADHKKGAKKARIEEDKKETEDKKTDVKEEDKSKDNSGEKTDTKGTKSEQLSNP

[4] = biological target: T2, PDE9 (Homo sapiens, UniProt O76083); test: IC50 of PDE9 inhibition (assay not described); supported by pCREB western blot in SH-SY5Y cells
T2 construct: gene PDE9A
T2 sequence (O76083 whole entry): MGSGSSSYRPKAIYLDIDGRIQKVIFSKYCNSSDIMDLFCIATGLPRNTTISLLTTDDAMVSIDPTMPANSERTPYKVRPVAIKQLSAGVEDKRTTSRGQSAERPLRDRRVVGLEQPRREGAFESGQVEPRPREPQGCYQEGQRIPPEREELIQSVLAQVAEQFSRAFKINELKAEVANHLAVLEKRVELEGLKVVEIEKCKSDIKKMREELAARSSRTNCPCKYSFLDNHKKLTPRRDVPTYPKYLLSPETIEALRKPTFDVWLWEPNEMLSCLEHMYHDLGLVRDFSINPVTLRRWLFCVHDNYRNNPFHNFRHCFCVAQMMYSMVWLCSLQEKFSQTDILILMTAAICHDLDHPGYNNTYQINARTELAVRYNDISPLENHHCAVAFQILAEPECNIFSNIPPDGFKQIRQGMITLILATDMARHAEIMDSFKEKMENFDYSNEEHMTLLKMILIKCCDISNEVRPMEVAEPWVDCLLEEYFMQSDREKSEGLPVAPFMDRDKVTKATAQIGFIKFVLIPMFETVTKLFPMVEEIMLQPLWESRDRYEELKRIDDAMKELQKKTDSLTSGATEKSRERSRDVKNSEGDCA

For CM-695, the IC50 [1] is given as 0.04 µM, the IC50 [2] is given as 0.593 µM and the IC50 [3] is given as 3.53 µM. The IC50 [4] was 0.107 µM.
